Laboratory results as given in article PMC7687371, “Quantitative in Vitro to in Vivo Extrapolation (QIVIVE) for Predicting Reduced Anogenital Distance Produced by Anti-Androgenic Pesticides in a Rodent Model for Male Reproductive Disorders” (Environmental Health Perspectives, 2020).
Read-outs that look alike come from different tables or passages of the source. Marks after values point to notes of the source that are not given here.

How the values were obtained:
[1] = PBK model first-order kinetic parameters fitted to in vivo ADME data; set-up: species or system rat; details: PBK model parameter; for Metabolism rate in liver, Total (L/h) KMetab: metabolic clearance
[2] = Fetal chemical exposure analysis (LC-QTOF) at GD21; type: in vivo, rat; details: for Measured concentration in male fetuses: Sprague-Dawley, rat, in vivo, 40 mg/kg/day
Procedure: Dams were decapitated under CO2 /oxygen anesthesia at GD21 and fetuses collected by cesarean section. Prior to decapitation of the fetuses, their BWs and AGDs were recorded. Blood from the dams was collected in heparinized vacutainer tubes, centrifuged at 125×g for 10 min at 4°C to prepare plasma, and, together with the amniotic fluid, frozen directly. Pooled trunk blood from all female and male fetuses of the same litter (female and male blood separately) was collected into heparin-treated capillary tubes approximately 90 min after dosing and the plasma was prepared and stored at −80°C until analysis for pesticides and selected metabolites by liquid chromatography quadrupole time-of-flight mass spectroscopy (LC-QTOF). Details about the LC-QTOF analyses are provided in “Method S1” in Supplemental Material. Amniotic fluid was collected from fetuses by pipetting, pooled within each litter, snap frozen in liquid nitrogen, and subsequently stored at −80 °C .
Method S1. Chemical analysis of pesticide levels
Acetonitrile, methanol, formic acid and 25% ammonium hydroxide, all of LC-MS grade and ethyl acetate were obtained from Sigma Aldrich, Schneldorf, Germany. Isolute bulk C-18 sorbent was obtained from Biotage, Sweden and was washed with acetonitrile and ethyl acetate and dried prior to use. Water was purified on a Milli Q system, Millipore Corporation, US.
Pesticide standards were purchased from Dr. Ehrenstorfer (Augsburg, Germany), LGC-standards (Teddington, Middlesex, UK) and Sigma Aldrich (St. Louis, MO, USA). Acetonitrile used as solvents for the LC-QTOF was LiChrosolv Hypergrade. An ESI-L low concentration tuning mix from Agilent (Santa Clara, CA, USA) was used for tuning of the TOF. A reference solution was prepared containing Purine and HP0921 from Agilent (Santa Clara, CA, USA).
Stock solutions of the pesticides were prepared at 1 mg/ml in acetonitrile, methanol or toluene.
Standard mixtures containing the test compounds were prepared at a concentration of 10 µg/ml acetonitrile and used for preparation of calibration solutions. Isomers eluting very close to each other were avoided in these mixtures. […]
added 200 µl of ice-cold acetonitrile in Eppendorf tubes. Internal standard was added in the form of 10 µl TPP (5 µg/ml) and the extraction was performed by whirl mixing. The tube was then stored on ice for 5 min and then centrifuged at 10,000 x g for 10 min at 4 °C (Ole Dich Instrument, Denmark). An aliquot of the supernatant was transferred to filter vials (0.45 µm) and analysed by […]
Quality control samples were included in each analytical run. These were prepared using the same procedure as for the samples, though using amniotic fluid from untreated control Wistar rats extracted with acetonitrile containing three different levels of the relevant pesticide standards. The resulting spike levels were 0.04, 0.013 and 0.13 µg/ml. […]
fluid or plasma from Sprague Dawley rats was transferred to an Eppendorf vial and added 150 µl of acetonitrile. 50 mg of isolute C-18 sorbent was added to the tube, which was shaken for 5 min, […]
cooled to 4 °C and centrifuged at 10,000 x g for 10 min at 4 °C (Ole Dich Instrument makers, Denmark). 20 µl of the supernatant was transferred to an HPLC vial and mixed with 80 µl of 5%- 75% acetonitrile (this percentage was analyte dependent) prior to analysis by LC-MS.LC -QTOF […]
Pesticide screening was carried out using a liquid chromatography-electrospray ionization-quadrupole-time of flight-mass spectrometer.
The LC system was connected to a Bruker Daltonics, maXis qTOF mass spectrometer equipped with an electrospray ion source operated in positive ion mode (Bruker Daltonics, Bremen, Germany). The ion source settings were: nebulizer pressure 2 bars, drying gas flow 8 l/min, dry gas temperature 200 °C, capillary voltage 2500 V. The scan range was from 80 to 700 m/z with an acquisition rate of 2 Hz. Sodium formate dissolved in 50% 2-propanol was introduced in the ion […]

androgen receptor (AR) = molecular target: androgen receptor (AR); set-up: method as in Vinggaard et al. (2008); details: ref Vinggaard et al. (2008); read-out: AR antagonism (IC50); cited from earlier work
[3] = set-up: method as in U.S. EPA 2012; details: EPI Suite, experimental preferred over modeled; ref U.S. EPA 2012; cited from earlier work
[4] = set-up: method as in Sierra-Santoyo et al. (2008); details: conversion of parent compound into active metabolite; ref Sierra-Santoyo et al. (2008); cited from earlier work
NCI-H295R cells [5] = assay: H295R steroidogenesis assay; type: cell-based, human; details: for Effect on androgen (steroid) synthesis, in words: H295R steroidogenesis assay
Procedure: To capture effects on steroid hormone synthesis (testosterone and androstendione), we tested all 12 pesticides in the H295R assay with the human adrenocortical carcinoma cell line NCI-H295R (American Type Culture Collection no. CRL-2,128, LGC Standards), as previously described ([Hecker et al. 2011]; [Rosenmai et al. 2013]). In brief, cells were cultured in DMEM/F-12 +glutamine medium with HEPES buffer (Invitrogen) containing 1% insulin-transferrin-sodium selenite plus Premix (VWR) and 2.5% Nu-Serum (BD Bioscience) at 37°C in a 5% CO2 atmosphere. The day before exposure, cells were seeded 300,000 per well in clear 24-well plates (VWR Corning). Cells were exposed for 48 h to control (Forskolin: 1μM , 10μM (Sigma-Aldrich); and Prochloraz: 0.3μM , 3μM (VWR-Bie and Berntsen) or test compounds. The vehicle (DMSO) concentration was kept constant in all wells (0.1%). After 48 h, the exposure culture medium was removed and stored at –80°C until the levels of 10 steroid hormones (testosterone, androstenedione, aldosterone, corticosterone, cortisol, dehydroepiandrosterone, 17α-hydroxyprogesterone , progesterone, estrone, and 17β-estradiol ) were quantified using the high-performance liquid chromatography–tandem mass spectrometry method described elsewhere ([Mortensen and Pedersen 2007]). Minor modifications were made to accommodate a smaller sample size and to include more hormones. The liquid chromatography system (Agilent 1100) was equipped with an Atlantis C18 column ( 2.1×150mm , 3μm ) (Waters Corp.) maintained at 40°C. The sample injection volume was 50μL . […] The mass spectrometer was a Quattro Ultima triple quadrupole instrument (Waters Corp.). […] Each pesticide was tested in 2-fold serial dilutions at concentrations between 0.8 and 50μM in three independent experiments, and hormone levels were normalized to the solvent controls containing 0.1% DMSO. Cell viability was evaluated by using the 3-(4,5-dimethylthiazol-2-yl)-2,5- diphenyltetrazolium bromide (MTT) assay (Sigma) as previously described ([Hecker et al. 2011]; [Rosenmai et al. 2013]). Fluorescence was measured (excitation 560 nm , emission 590 nm ) using a Wallac Victor2 1420 multilabel counter (PerkinElmer).

Wistar rats [6] = details: male, rat, in vivo, 40 mg/kg/day
Procedure: In total, four in vivo exposure studies were conducted with pesticide exposures to pregnant rats during gestation and lactation to the selected compound (Table 2). […] For one selected dose of each compound, the internal body concentrations in dams and fetuses were determined by cesarean section at GD21. Due to the study outcomes from the third study, we conducted a fourth follow-up study on dimethomorph (Study 4).
Pup weights and AGD were measured after birth at PD1 using a stereomicroscope with a micrometer eyepiece and were determined as the distance between the genital papilla and the anus. To discriminate between an anti-androgenic effect and stunted growth, the AGD index (AGDI) was calculated by dividing AGD by the cube root of the BW (as described by [Hass et al. 2007]). The estimation of AGDI effect doses by regression modeling required a standardized AGDI scale. Therefore, we normalized the AGDI values in relation to the dynamic range spanned by the mean AGDI of the male and the female controls as (38) normalized AGDI=mean(AGDI of male controls)−AGDI(exposed animal)/mean(AGDI of male controls)−mean(AGDI of female controls).

[7] = ref Wetmore et al. (2012); cited from earlier work
Wistar rats [8] = details: rat, in vivo, cited from earlier work
NCI-H295R cells [9] = assay: Cell viability (MTT) in the H295R assay; type: cell-based, human
Procedure: To capture effects on steroid hormone synthesis (testosterone and androstendione), we tested all 12 pesticides in the H295R assay with the human adrenocortical carcinoma cell line NCI-H295R (American Type Culture Collection no. CRL-2,128, LGC Standards), as previously described ([Hecker et al. 2011]; [Rosenmai et al. 2013]). In brief, cells were cultured in DMEM/F-12 +glutamine medium with HEPES buffer (Invitrogen) containing 1% insulin-transferrin-sodium selenite plus Premix (VWR) and 2.5% Nu-Serum (BD Bioscience) at 37°C in a 5% CO2 atmosphere. The day before exposure, cells were seeded 300,000 per well in clear 24-well plates (VWR Corning). Cells were exposed for 48 h to control (Forskolin: 1μM , 10μM (Sigma-Aldrich); and Prochloraz: 0.3μM , 3μM (VWR-Bie and Berntsen) or test compounds. The vehicle (DMSO) concentration was kept constant in all wells (0.1%). After 48 h, the exposure culture medium was removed and stored at –80°C until the levels of 10 steroid hormones (testosterone, androstenedione, aldosterone, corticosterone, cortisol, dehydroepiandrosterone, 17α-hydroxyprogesterone , progesterone, estrone, and 17β-estradiol ) were quantified using the high-performance liquid chromatography–tandem mass spectrometry method described elsewhere ([Mortensen and Pedersen 2007]). Minor modifications were made to accommodate a smaller sample size and to include more hormones. […]

pregnant dams and pups = details: ref EFSA's Draft Assessment Reports (DARs); cited from earlier work

C=CC(C)(OC(=O)Nc1cc(Cl)cc(Cl)c1)C(=O)O (centres unmarked) [M1, 2-[[(3,5-dichlorophenyl)-carbamoyl]oxy]-2-methyl-3-butenoic acid]
Urine excretion rate from kidney (L/h) KUrine [1]: 0.2 L/h
Measured concentration in male fetuses [2]: 18.0 µM
IC50 (androgen receptor (AR)): 2000 nM
log Kow [3]: 3.52
Metabolism rate in liver, Metabolite (L/h) [4]: 2.8^h L/h

C=CC(C)(O)C(=O)Nc1cc(Cl)cc(Cl)c1 (centres unmarked) [M2, 3′,5′-dichloro-2-hydroxy-2-methylbut-3-enanilide]
Urine excretion rate from kidney (L/h) KUrine [1]: 0.2 L/h
Measured concentration in male fetuses [2]: 3.4 µM
IC50 (androgen receptor (AR)): 200 nM
log Kow [3]: 2.95
Metabolism rate in liver, Metabolite (L/h) [4]: 0.9^h L/h

C=CC1(C)OC(=O)N(c2cc(Cl)cc(Cl)c2)C1=O (centres unmarked) [Vinclozolin, vinclozolin]
Effect on androgen (steroid) synthesis, in words (NCI-H295R cells [5]): negligible activity in terms of suppressing steroid synthesis
Portal GI absorption rate into liver (L/h) KAS [1]: 0.5 L/h
Urine excretion rate from kidney (L/h) KUrine [1]: 0.05 L/h
Metabolism rate in liver, Total (L/h) KMetab [1]: 1.4 L/h
Measured concentration in male fetuses (μM) ([2]; fetal plasma GD21, mean litter value, dams dosed 40 mg/kg BW per day parent compound (Study 1)): <0.15 ^e μM
AGDI reduction (%) (Wistar rats [6]): 26^d %
log Kow [3]: 3.10
Unbound plasma fraction (%) [7]: 59^g %
AGDI (normalised to male and female controls) mean (Wistar rats [8]; 5 mg/kg): 0.96
AGDI (normalised to male and female controls) mean (Wistar rats [8]; 10 mg/kg): 0.80
AGDI (normalised to male and female controls) mean (Wistar rats [8]; 20 mg/kg): 0.83
AGDI (normalised to male and female controls) mean (Wistar rats [8]; 24.5 mg/kg): 0.93
AGDI (normalised to male and female controls) mean (Wistar rats [8]; 40 mg/kg): 0.72
AGDI (normalised to male and female controls) mean (Wistar rats [8]; 80 mg/kg): 0.46
AGDI (normalised to male and female controls) mean (Wistar rats [8]; 95.9 mg/kg): 0.42
AGDI (normalised to male and female controls) mean (Wistar rats [8]; 160 mg/kg): 0.25
AGDI ED10 (Wistar rats [8]): 9.2 mg/kg BW
AGDI ED50 (Wistar rats [8]): 78.7 mg/kg BW

Fc1ccc(Oc2ccnc3cc(Cl)cc(Cl)c23)cc1 [Quinoxyfen, quinoxyphen]
Effect on androgen (steroid) synthesis, in words (NCI-H295R cells [5]): inhibited testosterone synthesis
IC20 (NCI-H295R cells [5]; Homo sapiens, NCI-H295R, read-out: Testosterone inhibition (IC20 µM)): 1000 nM
Androstendione, LOEC (NCI-H295R cells [5]; multiple contrast tests): 1.6 µM
Corticosterone, LOEC (NCI-H295R cells [5]; multiple contrast tests): 3.1 µM
DHEA, LOEC (NCI-H295R cells [5]; multiple contrast tests): 1.6 µM
Estradiol, LOEC (NCI-H295R cells [5]; multiple contrast tests): 25 µM
Progesterone, LOEC (NCI-H295R cells [5]; multiple contrast tests): 50 µM
Testosterone, lowest observed effect concentration (LOEC) (NCI-H295R cells [5]; multiple contrast tests): 1.6 µM
Cytotoxicity in H295R assay, concentrations (NCI-H295R cells [9]): cytotoxicity was observed at the same concentrations
Biliary excretion rate (L/h) KBiliary [1]: 1.4 L/h
Fecal excretion rate from gut (L/h) KFeces [1]: 2 L/h
Portal GI absorption rate into liver (L/h) KAS [1]: 1 L/h
Urine excretion rate from kidney (L/h) KUrine [1]: 0.01 L/h
Metabolism rate in liver, Total (L/h) KMetab [1]: 0.3 L/h
log Kow [3]: 4.66
Unbound plasma fraction (%) [7]: 5.0^g %
Critical toxicity (pregnant dams and pups): Reduced pup BW during lactation, liver hypertrophy
LOAEL (mg/kg bw) (pregnant dams and pups): 100 mg/kg bw
NOAEL (mg/kg bw) (pregnant dams and pups): 25 mg/kg bw
